SMILES strings stand for the structures.

The test system of one data set is EM9-XH5 cells. The data set can be described thus: Intracellular NAD(P)H assay using XTT or MTS. In kind it is cell-based, Chinese hamster. As to conditions: DMS 4 hours (XTT) or 2.5 hours (MTS) (FIG. 7A, B). The protocol: (§1) XTT^1) (2,3-bis[2-Methoxy-4-nitro-5-sulfophenyl]-2H-tetrazolium-5-carboxy-anilide inner salt) and MTS^2) (3-(4,5-dimethylthiazol-2-yl)-5-(3-carboxynethoxyphenyl)-2-(4-sulfophenyl)-2H-tetrazolium, inner salt), water-soluble tetrazolium salts, were used to measure the amount of intracellular NAD(P)H through the reduction to a water-soluble formazan dye. EM9-V and XH5 cells were seeded into 96-well plates and were cultured in 100 μL of medium with fetal bovine serum and antibiotics as described (10,000 cells per well). After a 30-minute incubation, cells were treated with DMS (dimethylsulfate) at indicated concentrations and 1/10 volume of either XTT with an electron coupling agents such as phenazine methosulfate (Sigma) or MTS with phenazine methosulfate (Promega). Cells in each well were further cultured for up to 4 hours. Either XTT or MTS produced a water-soluble yellow-colored formazan dye and the absorbance was recorded in a 96-well plate reader at 450 nm with a 650 nm reference filter.
(§2) These cells were exposed to DMS at different concentrations for 2.5 or 4 hours. […] In addition, CHO cells were co-exposed to DMS and PARP inhibitor, 3-aminobenzamide (10 mM) and were applied 1 to 2 hours prior to the DMS treatment and kept in the medium during DMS exposure until the cells were analyzed.
Background: Tetrazolium dyes change colour on reduction, which living cells bring about.

For data set [1], the system named is EM9-V cells. The data set can be described thus: Intracellular NAD(P)H assay using XTT or MTS. In kind it is cell-based, Chinese hamster. On the procedure: as §1, §2
Data set [2] deals with EM9-XH5 cells (CHO EM9 cells expressing wild-type human XRCC1). Kind of data set: Intracellular NAD(P)H assay with water-soluble tetrazolium salt WST-8 (CCK-8). In kind it is cell-based, Chinese hamster. On the procedure: (§3) XRCC1-proficient and -deficient CHO cells (Taylor, et al. (2002) Mol. Cell. Biol. 22:2556-2563) were cultured as monolayers in alpha-minimal essential medium (INVITROGEN™, Carlsbad, Calif.) supplemented with 10% fetal bovine serum (Sigma-Aldrich, St. Louis, Mo.), 100 μg/mL penicillin, and 100 μg/mL streptomycin. Immortalized mouse embryonic fibroblasts derived from PART-1^+/+ and PARP-1^−/− were maintained in Dulbecco's modified Eagle's medium, 4.5 g/Liter glucose medium (INVITROGEN™, Carlsbad, Calif.) supplemented with 10% fetal bovine serum and 0.5% gentamicin (Schreiber, et al. (2002) J. Biol. Chem. 277:23028-23036). Human lymphoblastoid cells (GM15030, GM15061, GM15237, GM15268, GM15339, GM15349, GM15365, and GM15380; Coriell Cell Repositories, Camden, N.J.) were grown in RPMI 1640 medium (INVITROGEN™, Carlsbad, Calif.) supplemented with 15% fetal bovine serum (Sigma-Aldrich, St. Louis, Mo.), 100 μg/mL penicillin, and 100 μg/mL streptomycin. The cells were maintained in a humidified atmosphere of 5% CO2 and 95% air at 37° C.
(§4) A water-soluble tetrazolium salt was used to measure the amount of intracellular NAD(P)H through the reduction to a formazan dye. The total amount of NAD(P)H within viable cells in the medium was determined periodically by a spectrophotometer. Cells were seeded into 96-well plates (CHO cells and mouse fibroblasts: 5×10^3 cells/well; lymphoblastoid cells: 15×10^3 cells/well) and were cultured in 100 μL of medium with fetal bovine serum and antibiotics as described. After a 30-minute incubation, cells were treated with MMS at indicated concentrations and 1/10 volume of CCK-8 solution (Dojindo Molecular Technology, Gaithersburg, Md.) which consisted of a water-soluble 2-(2-methoxy-4-nitrophenyl)-3-(4-nitrophenyl)-5-(2,4-disulfophenyl)-2H-tetrazolium monosodium salt (WST-8; 5 mM) and 1-Methoxy-5-methylphenazinium methylsulfate (1-Methoyx PMS; 0.2 mM) as an electron mediator. Cells in each well were further cultured for up to 4 hours. WST-8 produced a water-soluble yellow-colored formazan dye through its bioreduction either in the presence of an electron carrier, such as 1-Methoxy PMS, Diaphorase, a flavoenzyme, or directly by NAD(P)H. Therefore, the reduction of tetrazolium salts predominantly depends on the amount of intracellular NAD(P)H. The amount of formazan dye produced by the living cells in the medium was determined approximately every 30 minutes by a spectrophotometer and compared to the values of the control. Absorbance was recorded in a 96-well plate reader at 450 nm with a 650 nm reference filter. A medium blank was prepared with only medium and CCK-8 reaction solution. Decreases in the intracellular NAD(P)H were assessed by comparing the absorbance of a well containing cells treated with MMS against that of a well with cells treated with phosphate-buffered saline (PBS) only.
(§5) XRCC1 functions as a scaffold for interaction with other base excision repair-associated proteins including human AP endonuclease (APE1), DNA Pol-β, DNA Ligase III, Polynucleotide Kinase (PNK), and PARP-1 (Caldecott, et al. (1996) Nucl. Acids Res. 24:4387-4394; Whitehouse, et al. (2001) Cell 104:1-11; Kubota, et al. (1996) EMBO J. 15:6662-6670; Caldecott, et al. (1994) Mol. Cell. Biol. 14:68-76; Caldecott, et al. (1995) Nucl. Acids Res. 23:4836-4843) and is required for efficient single strand break repair and genetic stability in mammalian cells. Rodent cells lacking XRCC1 are hypersensitive to DNA damaging agents (Whitehouse, et al. (2001) Cell 104:1-11; Kubota, et al. (1996) EMBO J. 15:6662-6670; Caldecott, et al. (1994) Mol. Cell. Biol. 14:68-76). […]

Data set [3] concerns EM9-V cells (XRCC1-deficient CHO EM9 cells expressing empty vector). The description is as above. In kind it is cell-based, Chinese hamster. On the procedure: as §3, §4, §5
Data set [4] deals with Human lymphoblastoid cells (GM15030, GM15061, GM15237, GM15268, GM15339, GM15349, GM15365, GM15380). The data set can be described thus: Intracellular NAD(P)H assay (WST-8) in lymphoblastoid cells. The settings on record: eight healthy individuals, MMS 4 hours (FIG. 6A). Format: cell-based. The protocol: (§6) XRCC1-proficient and -deficient CHO cells (Taylor, et al. (2002) Mol. Cell. Biol. 22:2556-2563) were cultured as monolayers in alpha-minimal essential medium (INVITROGEN™, Carlsbad, Calif.) supplemented with 10% fetal bovine serum (Sigma-Aldrich, St. Louis, Mo.), 100 μg/mL penicillin, and 100 μg/mL streptomycin. Immortalized mouse embryonic fibroblasts derived from PART-1^+/+ and PARP-1^−/− were maintained in Dulbecco's modified Eagle's medium, 4.5 g/Liter glucose medium (INVITROGEN™, Carlsbad, Calif.) supplemented with 10% fetal bovine serum and 0.5% gentamicin (Schreiber, et al. (2002) J. Biol. Chem. 277:23028-23036). […]
(§7) A water-soluble tetrazolium salt was used to measure the amount of intracellular NAD(P)H through the reduction to a formazan dye. The total amount of NAD(P)H within viable cells in the medium was determined periodically by a spectrophotometer. […] WST-8 produced a water-soluble yellow-colored formazan dye through its bioreduction either in the presence of an electron carrier, such as 1-Methoxy PMS, Diaphorase, a flavoenzyme, or directly by NAD(P)H. Therefore, the reduction of tetrazolium salts predominantly depends on the amount of intracellular NAD(P)H. The amount of formazan dye produced by the living cells in the medium was determined approximately every 30 minutes by a spectrophotometer and compared to the values of the control. […]

Data set [5] has as its system EM9-V and EM9-XH5 CHO cells. Kind of data set: Trypan blue dye-exclusion assay (cell death). Format: cell-based, Chinese hamster. As to conditions: MMS 0, 0.75, 1.5 mM for 1 and 4 hours; any concentration. On the procedure:
Cell death was determined with trypan blue staining. Cells were treated with MMS at 0, 0.75, and 1.5 mM for 1 and 4 hours. After trypsinization, cells were stained using a standard trypan blue dye-exclusion assay.

Data set [6] deals with EM9-V cells. In kind it is cell-based, Chinese hamster. As to conditions: immediately after 1 hour MMS treatment (FIG. 5D). The protocol:
A direct comparison was conducted between the method of the invention measuring NAD(P)H and the Comet assay for the detection of single strand breaks. Slides for the Comet assay were prepared using well-known methods (Tennant, et al. (2001) Mutat. Res. 493:1-10). Briefly, slides were dipped into agarose and dried at 60° C. Low melting point agarose (0.5%) was prepared and held at 42° C. Cell suspensions (1×10^4 cells/10 μL) were mixed with 190 μL low melting point agarose. Ninety μL of this suspension was pipetted onto each of two slides and covered with a coverglass. Each slides was placed on ice for 5 minutes, the coverglass was removed, 90 μL of low melting point agarose was pipetted onto each slide, a coverglass was reapplied, and slides were returned to the ice. After 5 minutes, the coverglass was removed and the slides were placed in lysis buffer (pH 11) containing 2.5 M NaCl, 100 mM EDTA-2Na, 10 mM Tris, 1% Na Sarcosinate, 1% TRITON® X-100 and 10% dimethylsulfoxide for 20 minutes. Following lysis, the slides were placed in denaturation buffer (i.e., electrophoresis buffer; 300 mM NaOH, 1 mM EDTA, pH 13). […]
Slides were stained using 35 μL of SYBR GREEN-1™ (MOLECULAR PROBES™, Eugene, Oreg.)(10× in Tris-EDTA buffer pH 8.0) and a coverglass was applied. […] Fifty cells from each of two slides were analyzed by a independent scorer who had no knowledge of the treatment. […]

Data set [7] relates to PARP-1-/- immortalized embryonic fibroblasts. Kind of data set: Intracellular NAD(P)H assay (WST-8) in PARP-1-/- fibroblasts. In kind it is cell-based, mouse. As to conditions: PARP-1-/- cells, MMS 4 hours, compared with PARP-1+/+ cells (FIG. 4B). The protocol: as §6, §7
The test system of data set [8] is PARP-1+/+ immortalized embryonic fibroblasts. The data set can be described thus: Intracellular NAD(P)H assay (WST-8) in PARP-1+/+ fibroblasts. In kind it is cell-based, mouse. As to conditions: PARP-1+/+ cells, MMS 4 hours (FIG. 4A). On the procedure:
as §6, §7

Take `COS(=O)(=O)OC` [DMS, dimethylsulfate]: the “intracellular NAD(P)H significantly reduced by treatment with DMS” value is reported as “not” with EM9-XH5 cells and “significantly reduced” with EM9-V cells [1] (DMS 4 hours (XTT) or 2.5 hours (MTS), dose-dependent (FIG. 7A, B)).
On to `O=C1NCCc2c(OCCCCN3CCCCC3)cccc21` [DPQ, 3,4-dihydro-5-[4-(1-piperidinyl)butoxy]-1(2H)-isoquinolinone], for which the “block of MMS-induced decrease in intracellular NAD(P)H” value is “almost completely blocked” in data set [2] (DPQ 90 μM applied 1 to 2 hours before and during MMS, 4 hours (FIG. 3B)); “almost completely blocked” in data set [3] (EM9-V cells, DPQ 90 μM applied 1 to 2 hours before and during MMS, 4 hours (FIG. 3B)).
With `COS(C)(=O)=O` [MMS, methyl methanesulfonate], the “sensitivity to MMS (NAD(P)H depletion) among lymphoblastoid cell lines” value in [4] is on record as “wide variation in the sensitivity”. The “intracellular NAD(P)H on treatment with MMS” value in data set [2] (MMS at different concentrations for 4 hours, dose-dependent (FIG. 2A)) is recorded as “significantly reduced”; in data set [3] (EM9-V cells, MMS at different concentrations for 4 hours, dose-dependent (FIG. 2A)) it was “significantly reduced”. In [3] (EM9-V cells, at 1, 2 and 4 hours (FIG. 5A-C)), the “lowest MMS concentration at which decrease in intracellular NAD(P)H was detected” value is roughly 10 µM. Moreover, the “earliest time at which reduction of NAD(P)H was detected during MMS exposure” value in data set [3] (EM9-V cells, real-time assay, read about every 30 minutes (FIG. 2B)) stood at 30 min. Also, the “time for ratio of NAD(P)H in EM9-V versus EM9-XH5 cells to reach a plateau” value in data set [3] (as a function of exposure time with MMS (FIG. 2C)) was no more than 1 h. Also, in data set [5], the “cell death (trypan blue exclusion) during MMS treatment” value was “no major cell death”. Moreover, the “MMS concentration at which increase in tail moment was detected (Comet assay)” value with EM9-V cells [6] is roughly 50 µM. Further, the “NAD(P)H on exposure to MMS” value in data set [7] is given as “more resistant to the decrease in NAD(P)H”; in [8] it was “reduced NAD(P)H”.
On to `NC(=O)c1cccc(N)c1` [3-AB, 3-aminobenzamide], for which the “block of MMS-induced decrease in intracellular NAD(P)H” value in [2] (3-AB 10 mM applied 1 to 2 hours before and during MMS, 4 hours (FIG. 3A)) was “almost completely blocked”; in data set [3] (EM9-V cells, 3-AB 10 mM applied 1 to 2 hours before and during MMS, 4 hours (FIG. 3A)) it was “almost completely blocked”. Also, the “block of DMS-induced decrease in intracellular NAD(P)H” value with EM9-V cells [1] (3-AB 10 mM applied 1 to 2 hours before and during DMS, XTT 4 hours or MTS 2.5 hours (FIG. 7A, B)) is on record as “completely blocked”. Also, the “protection from reduction in NAD(P)H upon exposure to MMS” value in data set [8] (3-AB 10 mM) was “protected”.

The values above are taken from patent US6913878B2, “Method of detecting DNA single strand breaks” (The University of North Carolina at Chapel Hill, priority 2003, dated 2005).
